Measured values taken from patent US10668024B2, “Mesoporous silica nanoparticles for biomedical applications” (The Regents of the University of California, priority 2007, dated 2020).

Columns and labels:
[1] = system: PANC-1 cells; experiment: Confocal microscopy of FMSN uptake, Example 3; format: cell-based, human; conditions: 0.1% sodium azide, sucrose 0.45 M, bafilomycin A 0.05 μM, nocodazole 2 μg/ml, brefeldin A 5 μg/ml
Description: The fluorescence of FITC was used to monitor cellular uptake of FMSN. Cells were incubated with FMSN for 3 h at 37° C. under a 5% CO2 95% air atmosphere in an 8-chamber Lab-Tek chamber slide system with covers (Nalge Nunc International), washed with phosphate buffered saline (PBS) and examined with confocal microscopy (λex=470 nm) (Carl Zeiss LSM 310 Laser Scanning Confocal microscopy). To examine the distribution of FMSN within the cells, the same cells were then incubated with 6 μM of Acridine Orange (AO) (Sigma), which specifically stains lysosomes/endosomes to red (Canonico, P. G. and Bird, J. W. C. (1969), J. Cell Biol. 43, 367-371), for 1 h in DMEM without phenol red, washed with PBS, and examined by confocal microscopy again (λex=488 nm). The emission light was passed through a 560-nm short-pass dichroic mirror. The green emission was passed through a 530-nm bandpass filter, and the red emission was passed through a 600-nm longpass filter. Both emissions were simultaneously collected using two photomultiplier tubes.
To determine whether the uptake of FMSN into cancer cells was energy-dependent, the cells were incubated with FMSN under different metabolic conditions. The uptake assay was performed in the presence of sodium azide, sucrose, bafilomycin A, nocodazole or brefeldin A. Cells were seeded on 8-chamber Lab-Tek chamber slides for 24 h, then preincubated at 4° C. with either 0.1% sodium azide, or sucrose (0.45 M), or bafilomycin A (0.05 μM), or nocodazole (2 μg/ml), or brefeldin A (5 μg/ml) for 10 min. The FMSN suspension in PBS was then added and the cells were incubated for additional 3 h at 37° C. The uptake was stopped by washing the cells three times with cold PBS, and then the cells were fixed with 4% paraformaldehyde in PBS for 1 h at room temperature and washed with PBS. The chambers of slides were removed, and each slide was mounted with fluorescence-free glycerol-based mounting medium (Fluoromount-G; Southern Biotechnology Associates, USA) by cover glasses. Cells were analyzed by confocal microscopy (Carl Zeiss LSM 310 Laser Scanning Confocal microscopy).

[2] = system: cancer cells; conditions: relative to CPT; cited from earlier work
[3] = system: PANC-1 cells; experiment: Apoptosis assay (propidium iodide/Hoechst 33342, DNA fragmentation, caspase-3 Western blot); format: cell-based, human; conditions: 24 hours
Description: Cell death was also examined using the propidium iodide and Hoechst 33342 double-staining method. The cells were stained with propidium iodide/Hoechst 33342 (1:1) for 5 minutes and then examined using fluorescence microscope. DNA fragmentation assay was also performed. PANC-1 cells were treated for 24 hours with: (1) 100 nM CPT in PBS, (2) 100 nM CPT loaded in FMSN (suspended in PBS), or (3) 64 μg/ml nonloaded FMSN in PBS, then washed twice with ice-cold PBS and collected by trypsinization. The cell pellets were resuspended in 500 μl of Tris-EDTA buffer (20 mM Tris-HCl [pH 8.0], 20 mM EDTA) containing 0.1% SDS and proteinase K (0.5 mg/ml) at 50° C. for 2 hours and then treated with RNase A (0.02 mg/ml) for 30 minutes at 37° C. DNA was extracted using phenol/chloroform and ethanol precipitation and was dissolved in distilled water, separated on a 2% agarose gel, and stained with ethidium bromide.
Proteins were separated by gel electrophoresis on a polyacrylamide gel containing sodium dodecyl sulfate (SDS), and then transferred to nitrocellulose membranes. The membranes were blocked with tris buffer saline (TBS) containing 5% (W/V) skim milk. […] Bands were detected with an ECL system (Amersham Pharmacia Biotech K.K., UK).

[4] = system: SW480 cells; experiment: Cell death assay (WST-8), Example 2; format: cell-based, human
Description: (§1) Human cancer cell lines, PANC-1, AsPC-1, Capan-1 (pancreatic), MKN45 (gastric), and SW480 (colon) were obtained from the American Type Culture Collection and were maintained in Dulbecco's modified Eagle's medium (DMEM) (GIBCO) or RPMI-1640 (Cellgro) supplemented with 10% fetal calf serum (Sigma), 2% L-glutamine, 1% penicillin, and 1% streptomycin stock solutions. The media were changed every 3 days, and the cells were passaged by trypsinization before confluence.

[5] = system: Capan-1 cells; experiment: Cell death assay (WST-8), Example 2; format: cell-based, human
Description: as §1

[6] = system: AsPc-1 cells; experiment: Cell death assay (WST-8), Example 2; format: cell-based, human
Description: as §1

[7] = system: MKN-45 cells; experiment: Cell death assay (WST-8), Example 2; format: cell-based, human
Description: as §1

[8] = system: PANC-1 cells; experiment: Cell death assay (WST-8), Example 2; format: cell-based, human
Description: as §1

[9] = system: PANC-1 cells; experiment: Fluorescence and confocal microscopy, Example 2; format: cell-based, human; conditions: suspension of CPT in PBS, 100 nM, 3 hours incubation
Description: as §1
The fluorescence of the nanoparticles at 470 nm excitation wavelength was used to confirm the cellular uptake of FMSN. […] The cells were then monitored by fluorescence microscope with an excitation wavelength at 470 nm. To examine the location of FMSN within the cells, Acridine Orange (AO) (Sigma) and lysoSensor green DND-189 (Invitrogen) were used to monitor lysosomes and endosomes. Cells were cultured overnight on a Lab-Tek chamber slide system (Nalge Nunc International). After the cells were incubated with FMSN for 3 hours, they were washed with PBS and examined with confocal microscope (λex=470 nm) (Carl Zeiss LSM 310 Laser Scanning Confocal microscope). […] This property allows the use of fluorescence to study the distribution of CPT inside the cells. PANC-1 cells were incubated with CPT-loaded FMSN or CPT suspended in PBS (100 nM) for 3 hours, washed with PBS 3 times, and then examined by fluorescence microscope under UV.

[10] = system: PANC-1 cells; experiment: Cell morphology analysis by light microscopy; conditions: PANC-1, paclitaxel dissolved in DMSO

C[C@H]1CCC/C=C/[C@@H]2C[C@H](O)C[C@H]2[C@H](O)/C=C/C(=O)O1 [brefeldin A]
effect of preincubation with inhibitor on uptake of FMSN [1]: did not show any effect

CO/C1=C\C(C)=C\[C@@H](C)[C@@H](O)[C@@H](C)C/C(C)=C/C=C/[C@H](OC)[C@@H]([C@@H](C)[C@@H](O)[C@H](C)[C@@]2(O)C[C@@H](O)[C@H](C)[C@@H](C(C)C)O2)OC1=O [bafilomycin A]
effect of preincubation with inhibitor on uptake of FMSN [1]: completely suppressed the uptake

COC(=O)Nc1nc2ccc(C(=O)c3cccs3)cc2[nH]1 [nocodazole]
effect of preincubation with inhibitor on uptake of FMSN [1]: significantly disrupted the uptake

CCc1c2c(nc3ccc(OC(=O)N4CCC(N5CCCCC5)CC4)cc13)-c1cc3c(c(=O)n1C2)COC(=O)[C@]3(O)CC [irinotecan]
cytotoxicity to cancer cells compared to CPT [2]: 10%

OC[C@H]1O[C@@](CO)(O[C@H]2O[C@H](CO)[C@@H](O)[C@H](O)[C@H]2O)[C@@H](O)[C@@H]1O [sucrose]
effect of preincubation with inhibitor on uptake of FMSN [1]: suppressed the uptake

CC[C@@]1(O)C(=O)OCc2c1cc1n(c2=O)Cc2cc3ccccc3nc2-1 [CPT, camptothecin]
mechanism of cell death (propidium iodide/Hoechst 33342 double staining) ([3]; PANC-1, CPT dissolved in DMSO, compared with CPT-loaded FMSN): similar
cytotoxicity / growth inhibition ([4]; SW480, CPT dissolved in DMSO, 24 h treatment + 48 h): growth inhibition of different human cancer cells was observed
cytotoxicity ([4]; SW480, CPT suspended in PBS, even at high concentrations): did not show any cytotoxicity
cytotoxicity / growth inhibition ([5]; Capan-1, CPT dissolved in DMSO, 24 h treatment + 48 h): growth inhibition of different human cancer cells was observed
cytotoxicity ([5]; Capan-1, CPT suspended in PBS, even at high concentrations): did not show any cytotoxicity
cytotoxicity / growth inhibition ([6]; AsPc-1, CPT dissolved in DMSO, 24 h treatment + 48 h): growth inhibition of different human cancer cells was observed
cytotoxicity ([6]; AsPc-1, CPT suspended in PBS, even at high concentrations): did not show any cytotoxicity
cytotoxicity / growth inhibition ([7]; MKN-45, CPT dissolved in DMSO, 24 h treatment + 48 h): growth inhibition of different human cancer cells was observed
cytotoxicity ([7]; MKN-45, CPT suspended in PBS, even at high concentrations): did not show any cytotoxicity
cytotoxicity / growth inhibition ([8]; PANC-1, CPT dissolved in DMSO, 24 h treatment + 48 h): growth inhibition of different human cancer cells was observed
cytotoxicity ([8]; PANC-1, CPT suspended in PBS, even at high concentrations): did not show any cytotoxicity
CPT fluorescence in cells [9]: remained nonfluorescent

CC(=O)O[C@H]1C(=O)[C@@]2(C)[C@H]([C@H](OC(=O)c3ccccc3)[C@]3(O)C[C@H](OC(=O)[C@H](O)[C@@H](NC(=O)c4ccccc4)c4ccccc4)C(C)=C1C3(C)C)[C@]1(OC(C)=O)CO[C@@H]1C[C@@H]2O [paclitaxel]
morphologic change of the cells [10]: Cells became round and smaller

C[S+](C)[O-] [DMSO, dimethyl sulfoxide]
mechanism of cell death (propidium iodide/Hoechst 33342 double staining) ([3]; PANC-1, 10% DMSO): induced necrosis
